Source: PubChem BioAssay (NCI)
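Compound exposure: 48 hours, 5 concentrations, 96-well plates. GI50 = concentration required for 50% inhibition of growth. The concentration for full growth arrest is given as TGI.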

Assays:
Experiment in all cases: growth of human tumour cells (NCI), 48 h
NCI/ADR-RES ovarian = system: NCI/ADR-RES ovarian
A549 NSCLC = system: A549 NSCLC
CAKI-1 renal = system: CAKI-1 renal
MDA-MB-231 breast = system: MDA-MB-231 breast
SR leukemia = system: SR leukemia
HS 578T breast = system: HS 578T breast
SN12C renal = system: SN12C renal
T-47D breast = system: T-47D breast
SF-539 CNS = system: SF-539 CNS
HOP-62 NSCLC = system: HOP-62 NSCLC

Structure (SMILES) | GI50 (NCI/ADR-RES ovarian) [µM] | TGI (NCI/ADR-RES ovarian) [µM] | GI50 (A549 NSCLC) [µM] | TGI (A549 NSCLC) [µM] | GI50 (CAKI-1 renal) [µM] | TGI (CAKI-1 renal) [µM] | GI50 (MDA-MB-231 breast) [µM] | TGI (MDA-MB-231 breast) [µM] | GI50 (SR leukemia) [µM] | TGI (SR leukemia) [µM] | GI50 (HS 578T breast) [µM] | TGI (HS 578T breast) [µM] | GI50 (SN12C renal) [µM] | TGI (SN12C renal) [µM] | GI50 (T-47D breast) [µM] | TGI (T-47D breast) [µM] | GI50 (SF-539 CNS) [µM] | TGI (SF-539 CNS) [µM] | GI50 (HOP-62 NSCLC) [µM] | TGI (HOP-62 NSCLC) [µM]
CCOC(=O)c1cc2c(n1Cc1ccccc1)-c1oncc1CC2 | 2.01 | 6.3 | 4.93 | > 100 | 3.24 | 18.8 | 5.66 | 57.1 | 2.56 | 15.5 | 2.75 | 17.5 | 10 | 55.8 | 4.66 | 32 | 4.04 | 25.4 | 5.3 | > 100
CCCSC1=NC2C(N(CC)C(=O)N2CC)N1/N=C/C=C/c1ccccc1[N+](=O)[O-] (centres undefined) | 2.5 | 8.46 | 4.25 | > 100 | 2.93 | > 100 | 2.35 | 7.44 | 1.1 | 5.53 | 2.39 | > 100 | 3.84 | > 100 | 4.21 | > 100 | 2.13 | 5.8 | 3.79 | > 100
CS(=O)(=O)CCNCc1ccc(-c2ccc3ncnc(Nc4ccc(OCc5ccccc5)c(Cl)c4)c3c2)o1 | 5.9 | > 25 | 7.18 | > 25 | 0.41 | > 21.8 | 4.3 | 9.31 | 6.91 | 23.9 | 3.55 | 12.7 | 11.9 | > 25 | 1.1 | 12.9 | 4.26 | 9.2 | 6.83 | > 20.3
O=C(Oc1ccccc1Cl)c1ccccc1Nc1ccnc(C(F)(F)F)c1 | 0.269 | 0.698 | 1.36 | 21.5 | 0.599 | 1.76 | 0.202 | 0.502 | 0.0282 | > 100 | 20 | 74.1 | 0.289 | 2.57 | 31.2 | > 100 | 0.383 | 1.88 | 2.69 | 7.86
Nc1c(C(=O)Nc2ccccc2F)sc2nc3c(cc12)C(=O)CCC3 | 0.509 | 5.09 | 0.898 | > 100 | 1.76 | > 100 | 7.53 | > 100 | 1.68 | > 100 | 2.01 | > 25.5 | > 65.3 | > 100 | 6.79 | > 100 | 0.817 | > 22.2 | 4.12 | > 100
Cc1nc2n(c(=O)c1CCN1CCC(c3noc4cc(F)ccc34)CC1)CCCC2 | > 50 | > 50 | > 50 | > 50 | > 50 | > 50 | > 50 | > 50 | > 50 | > 50 | > 50 | > 50 | > 50 | > 50 | > 50 | > 50 | > 50 | > 50 | > 50 | > 50
CN(C[C@@H]1COCCO1)S(=O)(=O)Nc1ccc2ccc3ncc(-c4cnn(C)c4)cc3c(=O)c2c1 | 11.8 | > 100 | 6.64 | > 100 | 1.94 | > 27.4 | 7.76 | > 100 | 3.05 | > 100 | 1.35 | 6.16 | 3.53 | > 100 | 5.54 | > 100 | 1.57 | 7.91 | 10.9 | > 100
CNC1C(O)C(OC2C(N)CC(N)C(OC3OC(C(C)O)C(O)C(O)C3N)C2O)OCC1(C)O (centres undefined) |  | > 100 |  | > 100 |  | > 100 |  | > 100 |  | > 100 |  | > 100 |  | > 100 |  | > 100 |  | > 100 |  | > 100
O=C(OCc1ccc2c(Cl)cc(Cl)c(O)c2n1)c1cc2ccccc2[nH]1 | 0.953 | 5.22 | 1.75 | 4.01 | 0.435 | 1.65 | 0.422 | 1.52 | 0.324 | 1.92 | 1.62 | 4.48 | 0.285 | 0.939 | 1.49 | 4.35 | 0.587 | 1.48 | 1.63 | 3.81
C[C@H]1C(Oc2ccc(O)cc2)OC2OC3(C)CCC4[C@H](C)CCC1C24OO3 (some centres undefined) | 8.04 | 25.8 | 12.2 | 30.6 | 18.5 | 40.8 | 15.8 | 30.9 |  | > 100 | 11.9 | 32.7 | 11.7 | 26 | 2.1 | 26.9 | 16.3 | 33 | 21.8 | 51.5
COc1ccc(C(=O)COc2cccc(/C=C3\CSc4ccc(C)cc4C3=O)c2)cc1 | 3.89 | 18.7 | > 100 | > 100 | 28.7 | > 100 | 24 | > 100 | 1.98 | 5.25 | 40.4 | > 100 | 31.8 | > 100 | 11.7 | > 100 | > 100 | > 100 | 24.9 | > 100
CCC1CCc2nc3sc(C(=O)Nc4ccccc4C)c(N)c3cc2C1 (centres undefined) | 0.785 | > 100 | 0.616 | > 100 | 0.451 | > 100 | > 100 | > 100 | 0.196 | 14.6 | 0.514 | > 100 | 8.37 | > 100 | 0.816 | > 100 | 0.398 | > 100 | 0.674 | > 100
